“Also recorded” adds a separate entry of the source. Marks after values point to notes of the source that are not given here.
Experiments:
[1] = system: semi-established CIA Dba1 mice; experiment: Semi-established collagen induced arthritis (CIA) model; format: in vivo, mouse; conditions: for disease incidence: study day 33
Experimental: Semi-Established Collagen Induced Arthritis (CIA) Arthritis Model. Experiments were carried out at Bolder Biopath, Boulder, Colo. All experiments were carried out in compliance with regulations of the Institutional Animal Care and Use Committee and were conducted in accordance with principles and procedures dictated by the highest standards of humane animal care. Dba1 mice were injected at the base of the tail with 150 μL of Freund's Complete Adjuvant (Sigma) containing bovine type II collagen (Elastin Products, Owensville, Mo.) (2 mg/ml) on day 0 and again on day 21. Mice were randomized into treatment groups on study day 21, and treatment was initiated. Treatment continued daily (3 mg/kg, 10 mg/kg or 30 mg/kg QD at 24 hour intervals) through day 33, and mice were terminated on day 33 (animals 1-6) or day 34 (animals 7-12). Onset of arthritis occurred between study days 21 and 34. Clinical scores were assessed for each of the paws on study days 21-34 using the following scoring system: 0=normal, 1=one hind or fore paw joint affected or minimal diffuse erythema and swelling, 2=two hind or fore paw joints affected or mild diffuse erythema and swelling, 3=three hind or fore paw joints affected or moderate diffuse erythema and swelling, 4=marked diffuse erythema and swelling or =four digit joints affected, 5=severe diffuse erythema and severe swelling entire paw, unable to flex digits. Spleens and plasma were harvested at necropsy (day 33 for animals 1-6 and day 34 for animals 7-12) and paws were removed and fixed in formalin for histopathological analysis.

TNF-a = experiment: Inflammatory chemokine and cytokine analysis in CIA mice, TNF-a; format: in vivo, mouse; conditions: dexamethasone group
Experimental: (§1) Inflammatory Chemokine and Cytokine Analysis: At the termination of the CIA study, mice were sacrificed and blood was harvested via cardiac punch using EDTA as an anticoagulant. Following centrifugation, serum was diluted 1:4 with a mouse serum diluents kit (BioRad cat#171-305004). Levels of various mouse cytokines in plasma were quantified using Bioplex® Suspension Array System according to manufacturer's instruction (BioRad, mTNFa (171-G5023M), mIL-6 (171-G5007M), mKC (171-G5018M), mIFNg (171-G5017M), mIL-17 (Z60-00006Z2), mIL-1β (171-G5002M), mMCP-1 (171-G5019M).

IL-6 = experiment: Inflammatory chemokine and cytokine analysis in CIA mice, IL-6; format: in vivo, mouse; conditions: dexamethasone group
Excerpt: as §1, with “Following centrifugation, serum was diluted 1:4 with a mouse serum diluents kit (BioRad cat#171-305004).” left out

KC = experiment: Inflammatory chemokine and cytokine analysis in CIA mice, KC; format: in vivo, mouse; conditions: dexamethasone group
Excerpt: as §1, with “Following centrifugation, serum was diluted 1:4 with a mouse serum diluents kit (BioRad cat#171-305004).” left out

[2] = system: collagen-induced arthritis Dba1 mouse model; experiment: Established collagen induced arthritis model (clinical score, histopathology, body weight); format: in vivo
Experimental: Established Collagen Induced Arthritis Model: Experiments were carried out at Bolder Biopath, Boulder, Colo. All experiments were carried out in compliance with regulations of the Institutional Animal Care and Use Committee and were conducted in accordance with principles and procedures dictated by the highest standards of humane animal care. […] On study days 25-27, onset of arthritis occurred, and mice were randomized into treatment groups (10/treatment group, 4/group for normal). […] Randomization into each group was done after swelling was obviously established in at least one paw, and attempts were made to assure approximately equal mean scores across the groups at the time of enrollment. […] Treatment continued daily (QD at 24 h intervals) through arthritis day 14.

Btk [3] = biological target: T1, Btk (Homo sapiens, UniProt Q06187); experiment: Btk target site occupancy ELISA, human primary naïve B cells; format: cell-based; conditions: 10 nM
Experimental: (§2) Btk Target Site Occupancy ELISA: An ELISA method for the detection of free uninhibited Btk in mouse, rat, dog, monkey, and human lysates was developed at Celgene Avilomics Research and a validation of this method in human B cell lysate was performed by a CLIA Certified laboratory (Cambridge Biomedical Laboratories, Boston, Mass.) The parameters that were assessed included: accuracy, linearity, dilution, precision (intra and inter-assay), stability, reference range, freeze-thaw cycles, reportable range, specificity, sensitivity, and carryover. […] Standards and samples were transferred to a streptavidin-coated 96-well ELISA plate and mixed while shaking for 1 h at room temperature. […] After wash, goat α-mouse-HRP (1:5000 dilution in PBS+0.05% Tween-20+0.5% BSA) was added and incubated for 1 h at room temperature. The ELISA was developed with addition of tetramethyl benzidine (TMB) followed by Stop Solution and read at OD 450 nm.

Btk [4] = biological target: T2, Btk (Mus musculus, UniProt P35991); experiment: Btk protein resynthesis in mice (spleen covalent probe ELISA); format: in vivo
T2 construct: from tissue; host or cells: mouse spleen
Experimental: Spleen Homogenization: Spleens were harvested from mice, frozen immediately in liquid nitrogen and stored at −80° C. To generate spleen lysates, each spleen was sliced in half and lysed using a Precellys 24 Bead Homogenizer in 500 μL of BioRad Bio-Plex Lysis Buffer plus protease inhibitors. Supernatant was transferred to a fresh microfuge tube and stored frozen at −80° C. until analysis.
as §2
Btk Protein Resynthesis in Mice. […] Spleens were homogenized and assayed on the covalent probe ELISA for Btk target site occupancy and compound concentration in serum was measured.

Btk [5] = biological target: T1, Btk; experiment: Immunoblot of Btk kinase activity in human primary naïve B cells; format: cell-based; conditions: 10 nM
Experimental: (§3) Following incubation, cells were centrifuged and resuspended in 100 μL of serum-free RPMI and BCR was stimulated with addition of 5 μg/mL α-human IgM. […] Membranes were scanned on a LiCor Odyssey Scanner using infrared fluorescence detection.

[6] = system: PGPS 10S-induced arthritis in rats; experiment: PGPS 10S-induced model of chronic arthritis; format: in vivo, rat
Experimental: PGPS 10S-Induced Model of Chronic Arthritis. Rats were injected intraperitoneal with […] of animal body weight, to induce arthritis. Left and right hind limb lateral ankle widths of each rat were measured three times each prior to PG-PS 10S administration and on day 5. The first inflammatory response peak for both right and left ankles of PG-PS rats was reached on day 4. Rats were assigned to one of five treatment groups. […] Another group was treated with 0.3 mg/kg QD dexamethasone on the 3rd day post first peak (day 7) through day 22.

naïve human B-cells = experiment: B lymphocyte proliferation (3H-thymidine incorporation); format: cell-based; conditions: B-cell; α-human IgM stimulated
Experimental: B Lymphocyte Proliferation (^3H-Thymidine Incorporation): A suspension of resting purified naïve human B-cells isolated by negative selection (MACS reagent 130-091-150) in RPMI was prepared at 0.4-0.5×10^6 cells per mL. […] Experiments were performed in triplicate.

[7] = Plasma level of compound in mice of the Btk resynthesis experiment; format: in vivo, mouse; conditions: single oral 50 mg/kg, n=6
Experimental: Btk Protein Resynthesis in Mice. […] At 4, 8, 16, 24, 48, 72, and 96 hours after treatment, spleens and serum were harvested (n=6 mice/timepoint). Spleens were homogenized and assayed on the covalent probe ELISA for Btk target site occupancy and compound concentration in serum was measured.

Btk [8] = biological target: T1, Btk; experiment: Immunoblot of Btk signaling in α-IgM stimulated Ramos cells; format: cell-based
Experimental: as §3

Btk [9] = biological target: T1, Btk; experiment: Btk target site occupancy ELISA, Ramos cells; format: cell-based; conditions: one hour, read-out: EC90 of Btk occupancy (concentration required for 90% occupancy)
Experimental: as §2

Btk [10] = biological target: T1, Btk; experiment: Btk biochemical kinase assay; conditions: read-out: IC50apparent, Btk kinase activity
EGFR = EGFR (Homo sapiens, UniProt P00533); experiment: Biochemical kinase assay, EGFR (probe selectivity); conditions: read-out: IC50app EGFR
Lyn = Lyn (Homo sapiens, UniProt P07948); experiment: Biochemical kinase assay, Lyn (probe selectivity); conditions: read-out: IC50app Lyn
Syk = Syk (Homo sapiens, UniProt P43405); experiment: Biochemical kinase assay, Syk (probe selectivity); conditions: read-out: IC50app Syk

T2 sequence (P35991 whole entry): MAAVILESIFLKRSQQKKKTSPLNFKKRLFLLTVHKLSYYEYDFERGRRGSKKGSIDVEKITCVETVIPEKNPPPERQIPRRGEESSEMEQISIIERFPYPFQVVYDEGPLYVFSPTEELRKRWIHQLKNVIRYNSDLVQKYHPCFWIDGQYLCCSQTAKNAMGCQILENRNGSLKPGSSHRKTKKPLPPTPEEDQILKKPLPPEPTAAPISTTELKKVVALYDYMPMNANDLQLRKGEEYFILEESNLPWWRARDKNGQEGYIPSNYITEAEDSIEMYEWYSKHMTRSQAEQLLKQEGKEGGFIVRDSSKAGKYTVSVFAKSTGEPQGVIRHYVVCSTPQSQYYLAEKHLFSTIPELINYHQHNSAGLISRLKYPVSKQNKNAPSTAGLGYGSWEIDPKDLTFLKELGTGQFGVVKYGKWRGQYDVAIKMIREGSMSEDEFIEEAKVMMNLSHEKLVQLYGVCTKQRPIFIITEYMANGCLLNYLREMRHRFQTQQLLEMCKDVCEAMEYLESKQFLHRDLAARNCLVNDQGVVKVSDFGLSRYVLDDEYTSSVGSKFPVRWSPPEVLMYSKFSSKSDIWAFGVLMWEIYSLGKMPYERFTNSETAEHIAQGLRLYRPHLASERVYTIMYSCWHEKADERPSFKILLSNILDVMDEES
T1 sequence (Q06187 whole entry): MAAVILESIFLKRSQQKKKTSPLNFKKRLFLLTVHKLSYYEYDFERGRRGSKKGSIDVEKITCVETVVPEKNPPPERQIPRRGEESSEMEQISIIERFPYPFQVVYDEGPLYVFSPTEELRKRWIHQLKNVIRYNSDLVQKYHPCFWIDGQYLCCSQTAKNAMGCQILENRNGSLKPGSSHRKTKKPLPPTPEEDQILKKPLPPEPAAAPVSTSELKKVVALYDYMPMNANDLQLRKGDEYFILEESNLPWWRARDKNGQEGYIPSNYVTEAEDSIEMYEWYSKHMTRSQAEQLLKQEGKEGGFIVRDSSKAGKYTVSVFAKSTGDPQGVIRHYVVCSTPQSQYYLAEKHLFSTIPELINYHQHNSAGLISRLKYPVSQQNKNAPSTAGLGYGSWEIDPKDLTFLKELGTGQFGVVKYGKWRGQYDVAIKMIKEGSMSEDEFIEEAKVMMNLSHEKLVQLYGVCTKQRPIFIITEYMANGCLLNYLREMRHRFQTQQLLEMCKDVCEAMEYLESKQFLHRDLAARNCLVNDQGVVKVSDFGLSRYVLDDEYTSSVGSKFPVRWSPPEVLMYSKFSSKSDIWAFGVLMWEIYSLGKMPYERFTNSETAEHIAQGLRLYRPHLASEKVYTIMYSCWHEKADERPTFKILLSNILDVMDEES
Sequence of Lyn (P07948 whole entry): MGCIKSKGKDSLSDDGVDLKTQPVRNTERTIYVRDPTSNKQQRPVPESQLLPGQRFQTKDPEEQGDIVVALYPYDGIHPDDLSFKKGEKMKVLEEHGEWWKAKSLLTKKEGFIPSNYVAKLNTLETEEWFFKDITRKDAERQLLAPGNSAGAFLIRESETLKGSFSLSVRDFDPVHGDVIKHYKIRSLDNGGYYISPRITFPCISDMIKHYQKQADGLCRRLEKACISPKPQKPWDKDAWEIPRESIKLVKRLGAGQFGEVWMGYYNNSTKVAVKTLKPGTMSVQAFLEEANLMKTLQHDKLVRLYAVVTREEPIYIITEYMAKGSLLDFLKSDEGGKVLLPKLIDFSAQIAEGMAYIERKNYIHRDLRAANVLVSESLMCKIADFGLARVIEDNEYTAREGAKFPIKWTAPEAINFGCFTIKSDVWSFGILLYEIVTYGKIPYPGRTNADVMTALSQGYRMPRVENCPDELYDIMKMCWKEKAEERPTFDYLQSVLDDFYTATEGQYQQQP
Sequence of EGFR (P00533 25-1210): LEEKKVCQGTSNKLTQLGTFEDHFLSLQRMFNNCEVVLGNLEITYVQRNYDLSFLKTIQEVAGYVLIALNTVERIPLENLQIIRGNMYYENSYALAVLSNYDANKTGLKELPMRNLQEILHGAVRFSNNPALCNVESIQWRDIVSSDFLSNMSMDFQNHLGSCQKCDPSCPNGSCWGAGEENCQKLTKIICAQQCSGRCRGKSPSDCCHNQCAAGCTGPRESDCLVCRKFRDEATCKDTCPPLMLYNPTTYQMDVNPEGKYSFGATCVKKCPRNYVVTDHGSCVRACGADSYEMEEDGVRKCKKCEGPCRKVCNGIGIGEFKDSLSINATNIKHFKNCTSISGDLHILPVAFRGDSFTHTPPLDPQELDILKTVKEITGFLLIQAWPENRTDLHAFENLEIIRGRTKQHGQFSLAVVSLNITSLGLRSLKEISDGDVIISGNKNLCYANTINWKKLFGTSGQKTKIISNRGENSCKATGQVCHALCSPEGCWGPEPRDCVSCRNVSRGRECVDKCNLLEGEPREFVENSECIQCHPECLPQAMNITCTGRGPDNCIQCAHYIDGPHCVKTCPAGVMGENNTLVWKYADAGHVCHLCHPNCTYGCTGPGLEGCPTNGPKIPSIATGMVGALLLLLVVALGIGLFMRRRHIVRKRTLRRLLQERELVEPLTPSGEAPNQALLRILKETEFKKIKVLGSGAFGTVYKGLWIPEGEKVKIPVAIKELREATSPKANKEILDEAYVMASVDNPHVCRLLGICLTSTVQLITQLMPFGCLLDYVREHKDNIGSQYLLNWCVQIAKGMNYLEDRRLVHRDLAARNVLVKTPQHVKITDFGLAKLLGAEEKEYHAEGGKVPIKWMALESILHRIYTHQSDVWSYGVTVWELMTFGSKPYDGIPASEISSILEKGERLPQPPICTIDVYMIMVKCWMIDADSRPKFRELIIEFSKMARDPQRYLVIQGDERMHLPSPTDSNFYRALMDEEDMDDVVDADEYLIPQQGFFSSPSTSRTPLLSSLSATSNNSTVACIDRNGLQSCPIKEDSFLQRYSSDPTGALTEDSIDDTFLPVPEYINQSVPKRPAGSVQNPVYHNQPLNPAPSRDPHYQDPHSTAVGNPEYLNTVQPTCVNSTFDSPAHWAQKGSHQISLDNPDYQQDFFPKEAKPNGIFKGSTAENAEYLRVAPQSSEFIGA

SMILES: C[C@@H]1C[C@H]2[C@@H]3CCC4=CC(=O)C=C[C@]4(C)[C@@]3(F)[C@@H](O)C[C@]2(C)[C@@]1(O)C(=O)CO [dexamethasone, reference compound]
- disease incidence ([1]; dexamethasone group): 0%
- TNF-a mean (TNF-a): 131.0 pg/mL
- IL-6 mean (IL-6): 9.8* pg/mL
- KC mean (KC): 52.9 pg/mL
- inhibition of histopathologic signs of disease (six joints) ([2]; dexamethasone positive control (0.2 mg/kg)): 82%

SMILES: C=CC(=O)Nc1cccc(Nc2nc(Nc3ccc(OCCOC)cc3)ncc2F)c1 [Compound 1, N-(3-(5-fluoro-2-(4-(2-methoxyethoxyl)phenylamino)pyrimidin-4-ylamino)phenyl)acrylamide]
- disease incidence ([1]; 3 mg/kg QD): 50%
- disease incidence ([1]; 10 mg/kg QD): 17%
- disease incidence ([1]; 30 mg/kg QD): 8%
- body weight loss associated with severity of disease ([1]; all three dose levels): prevented the loss in body weight
- receptor occupancy at 0.01 µM (Btk [3]): 37%
- persistence of action on Btk (occupancy) after circulating compound has disappeared (Btk [4]; mice, single oral 50 mg/kg): > 12 h
- new Btk protein, % of pre-dose Btk protein levels (Btk [4]; mouse spleen, 24 hours after single oral 50 mg/kg): 43%
- new Btk protein, % of pre-dose Btk protein levels (Btk [4]; mouse spleen, 48 hours after single oral 50 mg/kg): 71%
- time for Btk protein to recover to 50% pre-dose levels (Btk [4]; mouse spleen, single oral 50 mg/kg): 24 to 48 h
- inhibition at 0.01 µM (Btk [5]): 42%
- spleen enlargement vs vehicle ([6]; 10 mg/kg QD, 30 mg/kg QD and 30 mg/kg QOD): significantly prevented spleen enlargement
- PGPS 10S-induced arthritis ([6]; 3, 10, 30 mg/kg QD, 30 mg/kg QOD): inhibited PGPS 10S-induced arthritis in a dose-dependent manner
- right and left lateral ankle width vs diseased group ([6]; PGPS rats, day 7 through day 22): significantly lower
- inhibition of histopathologic signs of disease (six joints) ([2]; 10 mg/kg): 87%
- EC50 (naïve human B-cells): 3 nM
- compound concentration in plasma at the 8 hour timepoint [7]: undetectable in 5/6 mice; also recorded: absent in 5 of 6 animals
- concentration at which 90% of Btk activity was inhibited (Btk [8]): 35 nM
- activation of the downstream kinase Erk (Btk [8]; anti-IgM): potently inhibited
- phosphorylation of Btk on Tyr551 (Btk [8]; anti-IgM): no effect
- phosphorylation of the Btk substrate PLCγ2 (Btk [8]; anti-IgM): potently inhibited
- EC90 (Btk [9]): 39 nM

SMILES: C=CC(=O)Nc1cccc(Nc2nc(Nc3cccc(OCCCNC(=O)CCCC(=O)NCCCOCCOCCOCCCNC(=O)CCCC[C@@H]4SC[C@@H]5NC(=O)N[C@@H]54)c3)ncc2C)c1 [Compound 2]
- IC50 (Btk [10]): 0.5 nM
- IC50 (EGFR): > 25 nM
- IC50 (Lyn): > 3.5 µM
- IC50 (Syk): > 1000 nM

— patent US20150216865A1, “METHODS OF TREATING A BRUTON'S TYROSINE KINASE DISEASE OR DISORDER” (Celgene Avilomics Research, Inc., priority 2012, published 2015)
